From patent US5200412A, “Heterobicyclic containing benzene sulfonamides which are platelet activating factor antagonists” (British Bio-Technology Limited, priority 1990, dated 1993)

Assays:
[1] = test system: PAF-induced bronchoconstriction; assay: inhibition of PAF-induced bronchoconstriction in the guinea pig; type: in vivo, Male Dunkin-Hartley guinea-pigs; conditions: 10 mg/kg p.o., 1 hour before PAF 40 ng/kg/min i.v. infusion
Description: The inhibition of PAF induced bronchoconstriction was measured in anaesthetised artificially ventilated guinea-pigs (450-500 g) using a modified version of the Konzett-Rossler technique (Konzett M and Rossler R, Naunym-Schmiedeb. Arch. Exp. Pathol. Pharmakol., 1940, 197, 71) Male Dunkin-Hartley guinea-pigs were anaesthetised with urethane, 1.6 g/kg. Through a midline neck incision, the trachea was cannulated and the animal ventilated with a constant tidal volume set between 5 and 15 ml, to give a tracheal inflation pressure of 15 mmHg at a rate of 40 per minute. A carotid artery was cannulated for the measurement of blood pressure and heart rate and both jugular veins were cannulated, one for the infusion of PAF and the other for the administration of test compounds. PAF, 40 ng/kg/min in saline with 0.25% bovine serum albumin, was infused i.v. to produced a 100% increase in tracheal inflation pressure, and bronchoconstrictor effects were determined. Test compounds were administered p.o. (10 mg/kg) 1 hour before the infusion of PAF was started whilst the animals were conscious.

PAF-induced hypotension = assay: reversal of PAF-induced hypotension in the rat; type: in vivo, Male Sprague-Dawley rats; conditions: iv, anaesthetised rats, i.v. bolus, PAF 100 ng/kg/min i.v. infusion, read-out: ED50 (50% reversal of the hypotensive PAF response)
Description: (§1) Compounds of general formula I inhibit PAF-induced functions in both the cellular and tissue levels by changing the PAF binding to its specific receptor site. The ability of compounds of general formula I to inhibit the binding of PAF to its specific receptor binding site on human platelet plasma membranes was measured according to Pharmacological Example 1. The ability of compounds of general formula I to reverse the hypotension caused by an infusion of PAF in rats was measured according to Pharmacology Example 2.
Male Sprague-Dawley rats (300-350 g) were anaesthetised with a mixture of sodium pentobarbitone, 22.5 mg/kg and thiopental 62.5 mg/kg. Through a midline incision in the neck, the trachea was cannulated and the animals, breathed spontaneously. A carotid artery was cannulated for the measurement of blood pressure and this signal was used to trigger a rate meter to measure heart rate. Both jugular veins were cannulated: one for the infusion of PAF and the other for the bolus administration of test compounds.
PAF, 100 ng/kg/min was infused i.v. until a sustained fall in mean blood pressure of 50 mmHg was achieved. […] Also presented in Table 2 is the result for a comparative example (N-cyclohexyl-N-methyl-4-(1H-imidazo[4,5-c]pyridylmethyl)benzamide. This compound (a PAF antagonist described in EP-A-0260613) is not within the scope of the invention.

PAF receptor = molecular target: T1, PAF receptor (Homo sapiens, UniProt P25105); assay: inhibition of 3H-PAF binding to human platelet plasma membrane; conditions: human platelet membranes, 0.5 nM 3H-PAF, 1 hour incubation at 0° C., pH 7.0
T1 construct: Platelet concentrates were obtained from a hospital blood bank; from tissue; host or cells: human platelets (hospital blood bank concentrates), lysed platelet membrane fraction
Description: as §1
The inhibition of 3H-PAF binding to human platelet plasma membrane by compounds of general formula I was determined by isotopic labelling and filtration techniques. Platelet concentrates were obtained from a hospital blood bank. These platelet concentrates (500-2500 ml.) were centrifuged at 800 rpm for 10 minutes in a SORVALL RC3B centrifuge to remove the red blood cells present. (The word SORVALL is a trade mark ) The supernatant was subsequently centrifuged at 3,000 rpm in a SORVALL RC3B centrifuge to pellet the platelets present. The platelet rich pellets were resuspended in a minimum volume of buffer (150 mM NaCl, 10 mM Tris, 2 mM EDTA, pH 7.5) and layered onto Ficoll-Paque gradients, 9 ml platelet concentrate to 2 ml Ficoll, and centrifuged at 1,900 rpm for 15 minutes in a SORVALL RT6000 centrifuge. This step removes the residual red blood cells and other nonspecific material such as lymphocytes from the preparation. The platelets which form a band between the plasma and the Ficoll were removed, resuspended in the above buffer and centrifuged at 3,000 rpm for 10 minutes in a SORVALL RT6000 centrifuge. The pelleted platelets were resuspended in buffer (10 mM Tris, 5 mM MgCl2, 2 mM EDTA, pH 7.0), snap freezed in liquid N2 and allowed to thaw slowly at room temperature in order to lyse the platelets. The latter step was repeated at least 3 times to ensure proper lysis. The lysed platelets were centrifuged at 3,000 rpm for 10 minutes in a SORVALL RT6000 centrifuge and resuspended in buffer. The latter step was repeated twice in order to remove any cytoplasmic proteins which may hydrolyse the platelet activating factor (PAF) receptor The prepared platelet membranes may be stored at -70° C. After thawing the prepared membranes were centrifuged in a SORVALL RT6000 at 3,000 rpm for 10 minutes and resuspended in assay buffer.
The assay was conducted by preparing a series of Tris-buffered solutions of the selected antagonist of predetermined concentrations. Each of these solutions contained ^3 H-PAF (0.5 nM; 1-O-[^3 H]octadecyl-2-acetyl-sn-glycero-3-phosphoryl choline with a specific activity of 132 Ci/mmol), […], a known amount of the test antagonist, and a sufficient amount of Tris-buffer solution (10 mM Tris, 5 mM MgCl2, pH 7.0, 0.25% BSA) to make the final volume 1 ml. Incubation was initiated by the addition of 100 μg of the isolated membrane fraction to each of the above solutions at 0° C. Two control samples, one (Cl) which contained all the ingredients described above except the antagonist and the other (C2) contains Cl plus a 1000-fold excess of unlabelled PAF, were also prepared and incubated simultaneously with the test samples. After 1 hour incubation, each solution was filtered rapidly under vacuo through a WHATMAN GF/C glass fibre filter in order to separate unbound PAF from bound PAF. (The word WHATMAN is a trade mark.) The residue in each case was rapidly washed 4 times with 5 ml cold (4° C.) Tris-buffer solution. Each washed residue was dried under vacuum on a sampling manifold and placed into vials containing 20 ml of OPTIPHASE MP scintillation fluid and the radioactivity counted in a liquid scintillation counter. […]

[2] = test system: endotoxin induced hypotension; assay: reversal of endotoxin induced hypotension in the rat; type: in vivo; conditions: iv, read-out: ED50 (50% reversal of the endotoxin induced hypotension)
Description: Rats were anaesthetised with a mixture of sodium pentobarbitone, 22.5 mg/kg, and thiopental, 62.5 mg/kg. The animals breathed spontaneously, air enriched with oxygen, and a carotid artery was cannulated for the measurement of blood pressure and heart rate. […] Test compounds were administered i.v. via the other jugular vein as a bolus.

T1 sequence (P25105 whole entry): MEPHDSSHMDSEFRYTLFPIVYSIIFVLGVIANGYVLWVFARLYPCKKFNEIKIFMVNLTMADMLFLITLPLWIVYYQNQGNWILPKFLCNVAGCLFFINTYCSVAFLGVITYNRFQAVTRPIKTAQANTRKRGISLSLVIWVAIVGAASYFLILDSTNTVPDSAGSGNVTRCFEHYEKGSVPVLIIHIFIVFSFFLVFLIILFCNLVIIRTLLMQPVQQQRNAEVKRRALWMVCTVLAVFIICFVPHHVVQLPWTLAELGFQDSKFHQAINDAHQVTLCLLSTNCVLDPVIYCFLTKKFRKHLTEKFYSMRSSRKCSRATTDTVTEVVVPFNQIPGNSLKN

Row | SMILES | % Inhibition of PAF-induced bronchoconstriction [1] | ED50 (PAF-induced hypotension) | IC50 (PAF receptor) | ED50 [2]
1 | C=CCN([C@@H](CC(C)C)C(=O)OCC)S(=O)(=O)c1ccc(Cn2c(C)nc3cnccc32)cc1 [60(B), N-Allyl-N-4-(1H-2-methylimidazo[4,5-c]pyridylmethyl)phenylsulphonyl-L-leucine ethyl ester] | 60% | – | – | –
2 | CCOC(=O)[C@H](CC(C)C)N(CC(=O)OC(C)(C)C)S(=O)(=O)c1ccc(Cn2c(C)nc3cnccc32)cc1 [69(B), N-t-butoxycarbonylmethyl-N-4-(1H-2-methylimidazo[4,5-c]pyridylmethyl)phenylsulphonyl-L-leucine ethyl ester] | 60% | – | – | –
3 | CN(C(=O)c1ccc(Cn2cnc3cnccc32)cc1)C1CCCCC1 [Comparative Example, N-Cyclohexyl-N-methyl-4-(1H-imidazo[4,5-c]pyridylmethyl)benzamide, reference compound] | – | 150 µg/kg | – | –
4 | CC[C@H](C)[C@H](NS(=O)(=O)c1ccc(Cn2c(C)nc3ccccc32)cc1)C(=O)OC [Example 6, N-4-(1H-2-Methylbenzimidazolylmethyl)phenylsulphonyl-L-isoleucine methyl ester] | – | – | 30 nM | –
5 | COC(=O)[C@H](CC(C)C)NS(=O)(=O)c1ccc(Cn2c(C)nc3ccccc32)cc1 [Example 7, N-4-(1H-2-Methylbenzimidazolylmethyl)phenylsulphonyl-L-leucine methyl ester] | – | 11.6 µg/kg | 20 nM | –
6 | COC(=O)[C@H](COCc1ccccc1)NS(=O)(=O)c1ccc(Cn2c(C)nc3ccccc32)cc1 [Example 12, N-4-(1H-2-Methylbenzimidazolylmethyl)phenylsulphonyl-O-benzyl-L-serine methyl ester] | – | 21 µg/kg | – | –
7 | CCOC(=O)[C@H](CC(C)C)NS(=O)(=O)c1ccc(Cn2c(C)nc3ccccc32)cc1 [Example 14, N-4-(1H-2-Methylbenzimidazolylmethyl)phenylsulphonyl-L-leucine ethyl ester] | – | – | 15 nM | –
8 | COC(=O)[C@H](CC(C)C)NS(=O)(=O)c1ccc(Cn2c(C)nc3cnccc32)cc1 [Example 32B, N-4-(1H-2-methylimidazo[4,5-c]pyridylmethyl)phenylsulphonyl-L-leucine methyl ester] | – | 2.1 µg/kg | 8 nM | 15.5 µg/kg
9 | CCOC(=O)[C@H](CC(C)C)NS(=O)(=O)c1ccc(Cn2c(C)nc3cnccc32)cc1 [Example 35B, N-4-(1H-2-methylimidazo[4,5-c]pyridylmethyl)phenylsulphonyl-L-leucine ethyl ester] | – | – | 0.2 nM | 2.9 µg/kg
10 | CCOCCOC(=O)[C@H](CC(C)C)NS(=O)(=O)c1ccc(Cn2c(C)nc3ccncc32)cc1 [Example 42A, N-4-(3H-2-Methylimidazo[4,5-c]pyridylmethyl)phenylsulphonyl-L-leucine 2-ethoxyethyl ester] | – | – | 2 nM | –
11 | Cc1nc2cnccc2n1Cc1ccc(S(=O)(=O)N[C@@H](CC(C)C)C(=O)OCCOCc2ccccc2)cc1 [Example 43B, N-4-(1H-2methylimidazo[4,5-c]pyridylmethyl)phenylsulphonyl-L-leucine 2-benzoxyethyl ester] | – | – | 1 nM | –
12 | CCOC(=O)[C@H](CC(C)C)N(C)S(=O)(=O)c1ccc(Cn2c(C)nc3cnccc32)cc1 [Example 53B, N-Methyl-N-4-(1H-2-methylimidazo[4,5-c]pyridylmethyl)phenylsulphonyl-L-leucine ethyl ester] | 91% | 0.5 µg/kg | 0.15 nM | –
13 | CCOC(=O)[C@H](CC(C)C)N(C)S(=O)(=O)c1ccc(Cn2c(C)nc3ccccc32)cc1 [Example 54, N-Methyl-N-4-(1H-2-methylbenzimidazolylmethyl)phenylsulphonyl-L-leucine ethyl ester] | – | – | 3 nM | –
14 | Cc1nc2cnccc2n1Cc1ccc(S(=O)(=O)N(C)[C@@H](CC(C)C)C(=O)OC(C)C)cc1 [Example 56B, N-Methyl-N-4-(1H-2-methylimidazo[4,5-c]pyridylmethyl)phenylsulphonyl-L-leucine i-propyl ester] | 72% | 0.6 µg/kg | – | –
15 | CCCCOC(=O)[C@H](CC(C)C)N(C)S(=O)(=O)c1ccc(Cn2c(C)nc3cnccc32)cc1 [Example 57B, N-methyl-N-4-(1H-2-methylimidazo[4,5-c]pyridylmethyl)phenylsulphonyl-L-leucine n-butyl ester] | – | – | 1 nM | –
